Tests used:
[1] = test system: TGFBR2 mRNA; test: remaining TGFBR2 mRNA relative to control siRNA (off-target knock-down) (fraction of control); quantification method: branched DNA; higher = less knock-down
Description: (§1)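 Screen-hit siRNA duplexes (19-mer plus 3' dTdT overhang) were transiently transfected into HaCaT cells in 12-well plates. After 48 h, TGFBR1 and TGFBR2 mRNA were quantified by branched DNA assay (QuantiGene, normalised to HPRT1) or by SYBR qPCR (normalised to HPRT1/SMAD4). Values are the remaining mRNA relative to control-siRNA-transfected cells; 1-2 biological replicates.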

[2] = test system: TGFBR1 mRNA; test: remaining TGFBR1 mRNA relative to control siRNA (off-target knock-down) (fraction of control); quantification method: branched DNA; higher = less knock-down
Description: as §1

| Sequence | remaining TGFBR2 mRNA [1] | remaining TGFBR1 mRNA [2] |
| --- | --- | --- |
| AAAAACCCUUUCCUGGGGCTT | 0.21 | 0.36 |
| AAAAGGCCUUCAAGCUGUUTT | 0.41 | 0.56 |
| AAAUGCUCCACCUCUCGGGTT | 0.28 | 0.37 |
| AACAUAGCCUCAUACAAGGTT | 0.25 | 0.7 |
| AAGUCUGACUCGGUAAGUATT | 0.72 | 0.87 |
| AAGUGCAUUCCGUGCAAUCTT | 0.59 | 0.92 |
| AAUCAGGGCGGAGUAGGUGTT | 0.91 | 1.21 |
| AAUCCUCUGGUGACUGCUGTT | 0.54 | 1.13 |
| AAUGCUGUUGGCAGCCAGATT | 0.11 | 0.71 |
| AAUGGGAGACAAGCCAAUUTT | 0.25 | 0.77 |
| AAUUGGCUCCACAGUCUUUTT | 0.44 | 1.23 |
| ACAGCCUCGAACACUGACATT | 0.58 | 1.04 |
| ACCAUGUCGGCCUUUUCAATT | 0.5 | 0.35 |
| ACCUUACCUUGUCGACGAATT | 0.56 | 0.7 |
| ACUGGAUCAGUCGCAGAAUTT | 0.38 | 1.15 |
| ACUUUGGACAUGACCGGCUTT | 0.51 | 1.2 |
| ACUUUGGUUUCGGUGCAGCTT | 0.23 | 0.63 |
| AGAAGUGUGACACGGGUCUTT | 0.15 | 0.93 |
| AGACUACUGUGGCCAGUAATT | 1.1 | 1.22 |
| AGACUGCAAAUAUUCCUGATT | 0.49 | 1.31 |
| AGAGAUUCCUUUUCUUCACTT | 0.79 | 0.24 |
| AGAUCACCGCGUAGACAACTT | 0.65 | 1.01 |
| AGAUCCAGGAUUACGCCAGTT | 0.72 | 0.88 |
| AGCACUGCGAGUACUGUGUTT | 1.08 | 0.33 |
| AGCCAGAAACUCAGACACCTT | 0.67 | 0.99 |
| AGCCCAUGCCCUUCACAAUTT | 0.89 | 0.71 |

| Sequence | remaining TGFBR2 mRNA [1] | remaining TGFBR1 mRNA [2] |
| --- | --- | --- |
| AGCCUCUGGAGAAUCUCCUTT | 0.6 | 1.04 |
| AGCGGUGCGUUUCAGGCUGTT | 0.7 | 1.06 |
| AGCGUCCUGAAGACUGGAUTT | 1.03 | 0.27 |
| AGCUUAUCCAACAGACGUCTT | 0.29 | 1.07 |
| AGCUUGUGCCAAGUGCCAUTT | 0.33 | 0.92 |
| AGGCAACAGGGAUGAGAUGTT | 0.2 | 0.93 |
| AGGCUAUAAGCUCGCCUACTT | 0.25 | 0.84 |
| AGGUCAUCACGUACUUUUUTT | 1.09 | 0.16 |
| AGGUUGUGGGCAAAGAUGUTT | 0.83 | 0.92 |
| AGUGGUACCACGAGCAAAGTT | 0.66 | 0.88 |
| AGUUCUCUCAAUUGCUUACTT | 0.54 | 0.92 |
| AUAAGACAAGUGGUCGGGGTT | 0.94 | 0.52 |
| AUAAGCAGUAAGUAGCUGGTT | 0.99 | 0.5 |
| AUAAGCAGUGAGAACGAGCTT | 1.26 | 0.5 |
| AUAUAUACUGCUAUGGUCATT | 0.39 | 0.39 |
| AUAUCCCGGGAGUUGUCGUTT | 0.37 | 1.1 |
| AUAUGUAAGACCUUCCUUCTT | 0.25 | 0.38 |
| AUAUUCCGUAAAACGAACATT | 0.38 | 0.77 |
| AUCCUGAGAUGUCAGCAGCTT | 0.4 | 1.42 |
| AUCCUUGGAGAUGAGCUGGTT | 0.16 | 0.72 |
| AUCCUUGGCCAGUUUGGUCTT | 0.15 | 1.19 |
| AUCCUUGUCUGGAACAGUGTT | 0.25 | 1.33 |
| AUCUAAACUCCUCUGGAGCTT | 0.38 | 0.76 |
| AUCUACACACACGCAAGAATT | 0.73 | 1.48 |
| AUGACACCUCAGUCCUUCCTT | 0.88 | 0.38 |
| AUGCACCGAACAGCUCCAUTT | 0.31 | 1.56 |

| Sequence | remaining TGFBR2 mRNA [1] | remaining TGFBR1 mRNA [2] |
| --- | --- | --- |
| AUGCACUGAAGAAUUUCUUTT | 0.75 | 0.43 |
| AUGCCAUUGUGCAUUGUCATT | 0.36 | 0.85 |
| AUGCUCCCUCUCAUACUCUTT | 0.39 | 0.9 |
| AUGGACAUUUACGGUAGUGTT | 0.46 | 0.44 |
| AUGGAGUAGCAUCACUCUCTT | 0.33 | 1.1 |
| AUGGCUAUUCCUGACCACGTT | 0.26 | 0.93 |
| AUGGUGAGAAGACACAGGCTT | 0.54 | 1.33 |
| AUGGUGUGGCUCGUCGUGCTT | 0.46 | 0.45 |
| AUGGUGUUUGCAAGCUCCUTT | 0.36 | 1 |
| AUGUAUAGGUAGUGCACAGTT | 0.35 | 0.98 |
| AUGUAUAGUCACGCAGUUCTT | 0.24 | 0.98 |
| AUGUCUCAAAGUCAAAAAATT | 0.58 | 0.92 |
| AUGUUCCGCCUGCUUUUGCTT | 0.38 | 1.19 |
| AUUAUGUCCUCUACGAUUATT | 0.49 | 0.76 |
| AUUGAAGCCACCAUUCUCCTT | 0.94 | 0.23 |
| AUUGUUCCGGAAAUAGGUCTT | 0.72 | 1.15 |
| AUUUCGCACACGUCCGUGUTT | 0.61 | 0.86 |
| CAAACAGCGGUUGGAAUAATT | 0.33 | 0.81 |
| CACUUCCCGGAUACUCAGATT | 0.33 | 0.96 |
| CAGAGCGAUCACCUUGAACTT | 0.17 | 0.66 |
| CAGUCUCAUCGUCCUCAUCTT | 0.69 | 1.07 |
| CCACUGGUGUGGGCCAUAATT | 0.51 | 1.38 |
| CCCAAGUCAUCCUGGUUGUTT | 0.67 | 0.83 |
| CCUCAAUUGACACUUGCCUTT | 0.8 | 1 |
| CUACCAUCAAUCCGGUAGGTT | 0.84 | 0.94 |

Source: the supplement of paper PMC3068080
